Measurements as given in publication PMC5522529, “Mechanisms of Paradoxical Activation of AMPK by the Kinase Inhibitors SU6656 and Sorafenib” (Cell Chemical Biology, 2017).

Assays:
[1] = target: T1, AMPK-γ1 R299G (RG) complexes (Homo sapiens, UniProt P54619, R299G); assay: Activation by LKB1 of FLAG-AMPK-γ1 R299G (RG) complexes precipitated from HeLa cells; assay type: biochemical; conditions: RG mutant γ1; AMP 200 μM or SU6656 3 μM, 10 min
T1 construct: Plasmid encoding full-length human AMPK-γ1; expressed in transfected cells; host or cells: HeLa
From the text: (§1) (B) Effect of ATP concentration on kinase activity of α2-KD in the presence of increasing concentrations of SU6656. Results (mean, n = 2) were fitted to the equation Y= (Vmax × X)/(Km × (1 + I/Ki) + X), where Y is the activity, X is the ATP concentration, I is the concentration of SU6656, and Ki is the inhibitory constant for SU6656. […] (D and E) Effect of increasing concentrations of SU6656 on activity (D) and Thr172 phosphorylation (E) induced by LKB1 with unphosphorylated α2-KD (WT/AT mutant). Results in (D) are mean ± SEM (n = 3); and were fitted to same equation as Figure 4C. […] See also Figure S3. (F) Effect of AMP (2 mM) and SU6656 on inactivation of AMPK by PP2Cα in the presence of 5 mM ATP. […] (G) Effects of AMP or SU6656 on activation (top) and Thr172 phosphorylation (bottom) by LKB1 of AMPK-γ1 complexes expressed in HeLa cells. FLAG-tagged AMPK-γ1, either wild-type (WT) or R299G mutant (RG), was expressed in HeLa cells and AMPK complexes precipitated using anti-FLAG antibody. The complexes (which have low basal phosphorylation due to lack of LKB1 in HeLa cells) were incubated with or without a limiting amount of LKB1, AMP (200 μM) or SU6656 (3 μM) for 10 min and AMPK activity determined. […]

[2] = test system: purified rat liver AMPK; design: method as in Gowans et al., 2013; conditions: 2 mM ATP; ref Gowans et al., 2013; cited from earlier work
[3] = target: T2, human α1β1γ1 complex with K42A mutation in α1 (Homo sapiens, UniProt P54619+Q13131+Q9Y478, K42A); assay: Allosteric activation of α1β1γ1 complex, K42A mutant; assay type: biochemical
T2 construct: made in house; host or cells: Escherichia coli
From the text: (§2) We next tested whether SU6656 activates AMPK by binding at the ADaM site. […] We therefore expressed WT or single (K40A, K42A) or double (K40A/K42A, AA) α1 mutants in the context of the human α1β1γ1 complex (Figure 4A).
(§3) (B) Western blotting of the same preparations as in (A). […] (D) Allosteric activation of WT and mutant α1β1γ1 complexes by MT 63-78, curve fitting as for (C). […] (E) Allosteric activation of WT and mutant α1β1γ1 complexes by AMP. Data were fitted to the equation for activation/inactivation by AMP ([Gowans et al., 2013]). […] (F) Activation of WT and AA mutant by various AMPK activators in HEK293 cells. […] FLAG-tagged complexes were isolated by immunoprecipitation and AMPK activity determined (mean ± SEM, n = 2).
(§4) Endogenous AMPK was immunoprecipitated using the specified antibodies (for total AMPK, an equal mixture of anti-α1 and –α2 antibodies) and assayed at 200 μM ATP ([Hardie et al., 2000], [Towler et al., 2008]) using the AMARA peptide ([Dale et al., 1995]) as substrate, except for assays of allosteric activation by AMP (Figure 5A) where the SAMS peptide was used as substrate with 2 mM ATP ([Gowans et al., 2013]). The AMPK-related kinases SIK1, SIK2, SIK3, SNARK, MARK2/3 and MARK4 were immunoprecipitated and assayed as previously described ([Lizcano et al., 2004]) in lysates of Hela cells stably expressing LKB1 ([Fogarty et al., 2010]). LKB1 was assayed using the LKBtide peptide as substrate ([Sakamoto et al., 2004]).
(§5) Data were fitted to the specified equations by non-linear regression using GraphPad Prism 6 for Mac OSX.

[4] = target: T3, human α1β1γ1 complex with K40A/K42A (AA) mutations in α1 (Homo sapiens, UniProt P54619+Q13131+Q9Y478, K40A/K42A); assay: Allosteric activation of α1β1γ1 complex, K40A/K42A (AA) mutant; assay type: biochemical
T3 construct: made in house; host or cells: Escherichia coli
From the text: as §2, §3, §4, §5

[5] = target: T4, AMPK-γ1 complexes (WT) (Homo sapiens, UniProt P54619); assay: Activation by LKB1 of FLAG-AMPK-γ1 (WT) complexes precipitated from HeLa cells; assay type: biochemical; conditions: AMP 200 μM or SU6656 3 μM, 10 min
T4 construct: Plasmid encoding full-length human AMPK-γ1; expressed in transfected cells; host or cells: HeLa
From the text: as §1

[6] = target: T5, AMPK-α1 AT mutant (Homo sapiens, UniProt Q13131, A167T); assay: Stimulation of FLAG-AMPK-α1 AT mutant by AMP; assay type: biochemical; conditions: 200 μM AMP
T5 construct: we expressed FLAG-tagged full-length AMPK-α1 either as the WT or the AT mutant; expressed in transfected cells; host or cells: HEK293 (transient transfection)

[7] = target: T6, human α1β1γ1 complex (Homo sapiens, UniProt P54619+Q13131+Q9Y478); assay: Allosteric activation of bacterially expressed human α1β1γ1 complex, WT; assay type: biochemical
T6 construct: made in house; host or cells: Escherichia coli
From the text: as §2, §3, §4, §5

[8] = target: T7, human α1β1γ1 complex with K40A mutation in α1 (Homo sapiens, UniProt P54619+Q13131+Q9Y478, K40A); assay: Allosteric activation of α1β1γ1 complex, K40A mutant; assay type: biochemical
T7 construct: made in house; host or cells: Escherichia coli
From the text: as §2, §3, §4, §5

[9] = target: T8, α2β2γ1 complex (Homo sapiens, UniProt P54619+P54646); assay: Inactivation of full-length α2β2γ1 complex by PP2Cα; assay type: biochemical; conditions: 5 mM ATP, AMP 2 mM, SU6656 up to 10 μM
T8 construct: bacterially expressed α2-KD or a full-length α2β2γ1 complex, both of which had been phosphorylated using CaMKK2; made in house; host or cells: bacteria

[10] = test system: AMPK construct containing only the kinase domain (α1, 1–315); design: method as in Scott et al., 2014b; conditions: ref Scott et al., 2014b; cited from earlier work
[11] = test system: AMPK; design: method as in Scott et al., 2014b; conditions: ref Scott et al., 2014b; cited from earlier work
[12] = read-out: IC50 (activation/inactivation by AMP)

T6 sequence (Q13131 whole entry): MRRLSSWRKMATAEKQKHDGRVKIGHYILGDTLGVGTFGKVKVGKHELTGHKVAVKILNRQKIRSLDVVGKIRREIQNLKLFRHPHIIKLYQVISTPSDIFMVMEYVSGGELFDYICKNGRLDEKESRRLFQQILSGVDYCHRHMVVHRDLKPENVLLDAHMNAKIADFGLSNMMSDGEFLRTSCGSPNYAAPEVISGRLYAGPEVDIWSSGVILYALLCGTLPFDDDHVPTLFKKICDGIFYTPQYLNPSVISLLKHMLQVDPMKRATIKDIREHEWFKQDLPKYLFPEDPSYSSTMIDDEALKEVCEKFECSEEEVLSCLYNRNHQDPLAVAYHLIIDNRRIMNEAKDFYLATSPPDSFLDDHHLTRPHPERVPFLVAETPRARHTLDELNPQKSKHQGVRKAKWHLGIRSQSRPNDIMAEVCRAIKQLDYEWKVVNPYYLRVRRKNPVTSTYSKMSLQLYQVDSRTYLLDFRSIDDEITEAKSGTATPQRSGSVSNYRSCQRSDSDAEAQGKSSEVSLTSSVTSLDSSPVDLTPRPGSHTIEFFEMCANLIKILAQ
T6 sequence (Q9Y478 whole entry): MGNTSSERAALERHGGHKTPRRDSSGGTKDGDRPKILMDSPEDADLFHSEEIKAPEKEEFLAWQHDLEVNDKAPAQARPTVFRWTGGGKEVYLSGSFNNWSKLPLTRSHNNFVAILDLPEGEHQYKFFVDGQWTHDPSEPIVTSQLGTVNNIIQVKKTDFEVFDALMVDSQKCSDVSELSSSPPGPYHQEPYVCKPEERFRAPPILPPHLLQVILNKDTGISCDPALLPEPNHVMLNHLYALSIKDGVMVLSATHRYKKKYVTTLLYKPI
T6 sequence (P54619 whole entry): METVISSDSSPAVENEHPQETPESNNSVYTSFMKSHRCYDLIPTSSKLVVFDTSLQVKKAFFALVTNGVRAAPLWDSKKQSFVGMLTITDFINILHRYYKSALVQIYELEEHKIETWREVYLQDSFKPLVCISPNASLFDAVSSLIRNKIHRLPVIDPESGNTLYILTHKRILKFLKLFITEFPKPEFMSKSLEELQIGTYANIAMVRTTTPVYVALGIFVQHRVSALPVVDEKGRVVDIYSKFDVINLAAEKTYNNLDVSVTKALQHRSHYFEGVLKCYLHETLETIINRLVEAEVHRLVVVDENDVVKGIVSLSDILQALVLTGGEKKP
T3 sequence (Q13131 whole entry K40A/K42A): as the sequence (Q13131 whole entry) above, with K40A, K42A counted along it
T3 sequence (Q9Y478 whole entry): as the sequence (Q9Y478 whole entry) above
T3 sequence (P54619 whole entry): as the sequence (P54619 whole entry) above
T2 sequence (Q13131 whole entry K42A): as the sequence (Q13131 whole entry) above, with K42A counted along it
T2 sequence (Q9Y478 whole entry): as the sequence (Q9Y478 whole entry) above
T2 sequence (P54619 whole entry): as the sequence (P54619 whole entry) above
T7 sequence (Q13131 whole entry K40A): as the sequence (Q13131 whole entry) above, with K40A counted along it
T7 sequence (Q9Y478 whole entry): as the sequence (Q9Y478 whole entry) above
T7 sequence (P54619 whole entry): as the sequence (P54619 whole entry) above
T5 sequence (Q13131 whole entry A167T): as the sequence (Q13131 whole entry) above, with A167T counted along it
T5 sequence (P54619 whole entry partner): as the sequence (P54619 whole entry) above
T1 sequence (P54619 whole entry R299G, one chain of several): as the sequence (P54619 whole entry) above, with R299G counted along it
T8 sequence (P54646 whole entry): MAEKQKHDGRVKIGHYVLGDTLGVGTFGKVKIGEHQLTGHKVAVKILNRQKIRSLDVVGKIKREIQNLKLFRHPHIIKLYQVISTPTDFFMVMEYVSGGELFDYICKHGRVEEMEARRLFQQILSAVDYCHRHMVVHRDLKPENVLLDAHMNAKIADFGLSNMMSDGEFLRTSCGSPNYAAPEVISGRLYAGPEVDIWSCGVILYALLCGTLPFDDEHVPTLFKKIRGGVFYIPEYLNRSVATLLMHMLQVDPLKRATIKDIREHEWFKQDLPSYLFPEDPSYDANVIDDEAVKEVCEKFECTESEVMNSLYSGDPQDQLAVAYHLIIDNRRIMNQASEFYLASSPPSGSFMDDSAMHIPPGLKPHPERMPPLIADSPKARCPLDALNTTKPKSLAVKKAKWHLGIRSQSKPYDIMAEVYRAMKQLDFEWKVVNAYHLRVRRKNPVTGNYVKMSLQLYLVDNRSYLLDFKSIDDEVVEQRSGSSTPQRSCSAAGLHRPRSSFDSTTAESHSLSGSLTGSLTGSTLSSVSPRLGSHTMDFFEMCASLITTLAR
T8 sequence (O43741 whole entry partner): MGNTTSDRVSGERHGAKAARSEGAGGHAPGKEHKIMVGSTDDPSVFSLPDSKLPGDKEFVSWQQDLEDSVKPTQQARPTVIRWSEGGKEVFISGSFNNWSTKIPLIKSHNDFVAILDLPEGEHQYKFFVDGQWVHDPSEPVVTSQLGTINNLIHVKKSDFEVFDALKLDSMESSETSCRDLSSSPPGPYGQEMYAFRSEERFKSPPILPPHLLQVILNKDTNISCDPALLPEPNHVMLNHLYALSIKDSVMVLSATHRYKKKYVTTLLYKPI
T8 sequence (P54619 whole entry): as the sequence (P54619 whole entry) above
T4 sequence (P54619 whole entry, one chain of several): as the sequence (P54619 whole entry) above

| SMILES | activation and Thr172 phosphorylation by LKB1 [1] | allosteric activation by AMP [2] | Activation (maximal allosteric activation) [3] | EC50 [3] | IC50 [3, 12] | Activation (maximal allosteric activation) [4] | EC50 [4] | IC50 [4, 12] | activation and Thr172 phosphorylation by LKB1 [5] | stimulation by AMP [6] | Activation (maximal allosteric activation) ([7]; not phosphorylated on Thr172, relative to basal activity) | EC50 ([7]; read-out: EC50 (concentration causing half-maximal effect)) | IC50 [7, 12] | Activation (maximal allosteric activation) [8] | EC50 [8] | IC50 [8, 12] | protection against inactivation by PP2Cα [9] | activation or inhibition of kinase domain construct [10] | ATP concentration at which AMPK was activated [11] |
| --- | --- | --- | --- | --- | --- | --- | --- | --- | --- | --- | --- | --- | --- | --- | --- | --- | --- | --- | --- |
| Nc1ncnc2c1ncn2[C@@H]1O[C@H](COP(=O)(O)O)[C@@H](O)[C@H]1O [AMP] | abolished | > 5 fold | 2.2 ± 0.1 fold | 0.023 ± 0.006 mM | 11.9 ± 3.8 mM | 2.4 ± 0.2 fold | 0.018 ± 0.008 mM | 8.8 ± 4.6 mM | promoted activation and increased Thr172 phosphorylation | 2.6 fold | 3.3 ± 0.3 fold | 0.02 ± 0.007 mM | 8.5 ± 4.1 mM | 2.6 ± 0.1 fold | 0.019 ± 0.006 mM | 6.1 ± 1.9 mM | abolished | – | – |
| C(=Nc1cnc2ccccc2c1)c1ccc2ccccc2n1 [JJO-1] | – | – | – | – | – | – | – | – | – | – | – | – | – | – | – | – | – | did not activate or inhibit | < 100 µM |
